The source of these data is publication PMC7400437, “Synthesis and Evaluation of the Antibacterial Activities of 13-Substituted Berberine Derivatives” (Antibiotics, 2020).

Assay [1] deals with B. subtilis. Kind of assay: Macromolecule synthesis inhibition assay by fluorescent microscopy (morphological changes). Conditions: 4 × MIC, 2 h, 37 °C; for Observed Morphology: DNA, B. subtilis: DAPI.
The next assay relates to V. alginolyticus. The description is as above. As to conditions: 4 × MIC, 2 h, 37 °C; for Observed Morphology: DNA, V. alginolyticus: DAPI; for Observed Morphology: cell membrane, V. alginolyticus: FM4-64FX.
In a further assay the test system is C. albicans. Kind of assay: MIC, antifungal activity assay. It counts as cell-based, Candida albicans (DSM 10697). As to conditions: Candida albicans; Table 1 first screening; 35 °C, 24 h; read-out: Minimal Inhibitory Concentration (MIC) C. albicans.
For a further assay, the system named is S. aureus. Put plainly: MIC, antimicrobial activity assay. It counts as cell-based, Staphylococcus aureus (ATCC 6538P). Conditions: Staphylococcus aureus; Table 1 first screening; read-out: Minimal Inhibitory Concentration (MIC) S. aureus.
Assay [2] deals with B. subtilis. Put plainly: MIC, antimicrobial activity assay. As to conditions: Bacillus subtilis; Table 1 first screening; read-out: Minimal Inhibitory Concentration (MIC) B. subtilis. The class given is cell-based, Bacillus subtilis (ATCC 6633).
For a further assay, the system named is E. coli. Kind of assay: MIC, antimicrobial activity assay. The class given is cell-based, Escherichia coli (ATCC 8739). As to conditions: Escherichia coli; Table 1 first screening; read-out: Minimal Inhibitory Concentration (MIC) E. coli.
For a further assay, the system named is P. aeruginosa. Kind of assay: MIC, antimicrobial activity assay. It counts as cell-based, Pseudomonas aeruginosa (ATCC 9027). As to conditions: Pseudomonas aeruginosa; Table 1 first screening; read-out: Minimal Inhibitory Concentration (MIC) P. aeruginosa.
The subject of a further assay is M. smegmatis. Put plainly: microbe, parasite or virus in culture. The class given is cell-based, Mycobacterium smegmatis (mc2155, ATCC 700084). Conditions: Mycolicibacterium smegmatis, 72 h, read-out: Minimal Inhibitory Concentration (MIC) M. smegmatis.
The subject of assay [3] is BEAS (human airway epithelial cells). Kind of assay: Cytotoxic assay on human cells (resazurin). It counts as cell-based. As to conditions: Epithelial cell, 48 h, means +/−SD, read-out: Inhibitory Concentration 50 (IC50) on cell viability, BEAS. How it is done: (§1) The toxicity of berberine and berberine’s derivatives on human cells was evaluated using resazurin assay as previously described. Human cells used were BEAS (ATCC CRL-9609), Caco2 (ATCC HTB-37) and HepG2 (ATCC HB-8065) corresponding respectively to human airway epithelial cells, intestinal epithelial cells and liver cells. Cells were cultured in Dulbecco’s modified essential medium (DMEM) supplemented with 10% fetal bovine serum (FBS), 1% L-glutamine and 1% antibiotics (Thermo Fisher Scientific, Illkirch-Graffenstaden, France). Cells were routinely grown on 25 cm^2 flasks and maintained in a 5% CO2 incubator at 37 °C. For toxicity assay, cells were detached using trypsin–EDTA solution (Thermo Fisher Scientific), counted using Mallasez counting chamber and seeded into 96-well cell culture plates (Greiner bio-One, Dominique Dutscher, Brumath, France) at approximately 10,000 cells per well. The cells were left to grow for 48–72 h at 37 °C in a 5% CO2 incubator until they reached confluence. Media from wells was then aspirated and cells were treated with 100 µL of culture media containing increasing concentrations of berberine or berberine’s derivatives obtained by serial dilution (from 0 to 50 µM, 1:2 dilution), DMSO (0.5% DMSO final concentration) was used as negative control. After 48 h incubation at 37 °C in a 5% CO2 incubator, cell viability was evaluated using resazurin based in vitro toxicity assay kit (Sigma-Aldrich) following manufacturer’s instructions. Briefly, cell wells were emptied, and cells were treated with 100 µL of resazurin diluted 1:10 in sterile PBS containing calcium and magnesium (PBS^++, pH 7.4). After 4 h incubation at 37 °C, fluorescence intensity (excitation wavelength of 530 nm/emission wavelength of 590 nm) was measured using Synergy Mx microplate reader (Biotek). The fluorescence values were normalized by the controls (DMSO treated cells) and expressed as percent viability. The IC50 values of berberine and berberine’s derivatives on cell viability (i.e., the concentration of derivative causing a reduction of 50% of the cell viability) were calculated using GraphPad® Prism 7 software (San Diego, CA, USA). t-Test and two ways ANOVA analyses were used to address the significant differences between mean values with significance set at p < 0.05.
On the technique in general: Alamar Blue is a resazurin reagent that responds to reducing activity.

The subject of assay [4] is Caco2 (human intestinal epithelial cells). Kind of assay: Cytotoxic assay on human cells (resazurin). It counts as cell-based. As to conditions: Homo sapiens, Caco-2, 48 h, read-out: Inhibitory Concentration 50 (IC50) on cell viability, Caco2. Here is the method: as §1
For assay [5], the system named is HepG2 (human liver cells). Put plainly: Cytotoxic assay on human cells (resazurin). It counts as cell-based. Conditions: HepG2, 48 h, read-out: Inhibitory Concentration 50 (IC50) on cell viability, HEPG2. Here is the method: as §1

Structures are written as SMILES. Converted amounts (≈) assume the structure as drawn.

As to `CC1(C)S[C@@H]2[C@H](NC(=O)[C@H](N)c3ccc(O)cc3)C(=O)N2[C@H]1C(=O)O` [Amoxicillin], in the assay on B. subtilis [1], the “Observed Morphology: cell elongation/enlargement, B. subtilis” value is 1.5 times compared to control; the “Observed Morphology: cells connected, B. subtilis” value was 2–4 cells connected; the “Observed Morphology: DNA, B. subtilis” value is on record as 2 condensed DNA in each cell. In the assay with V. alginolyticus, the “Observed Morphology: cell elongation, V. alginolyticus” value was 1–3 times compared to control; the “Observed Morphology: cells connected, V. alginolyticus” value is recorded as 1–2 cells connected; the “Observed Morphology: DNA, V. alginolyticus” value was “Thick condensed and decondensed DNA spanning the cell”; the “Observed Morphology: cell membrane, V. alginolyticus” value is on record as “Cell membrane thickening”.
`C[C@@H]1[C@H](O)[C@@H](C)/C=C/C=C/C=C/C=C/C=C/C=C/C=C/[C@H](O[C@@H]2O[C@H](C)[C@@H](O)[C@H](N)[C@@H]2O)C[C@@H]2O[C@](O)(C[C@@H](O)C[C@@H](O)[C@H](O)CC[C@@H](O)C[C@@H](O)CC(=O)O[C@H]1C)C[C@H](O)[C@H]2C(=O)O` [Amphotericin B, reference compound]: the MIC in the assay on C. albicans turned out to be 1.1 µM (≈ 1.02 µg/mL).
With `COc1ccc2c(c1OC)CN1CCc3cc4c(cc3C1=C2)OCO4` [Compound 1, Dihydroberberine], the MIC with S. aureus was 100 µM (≈ 33.7 µg/mL); with B. subtilis [2], over 100 µM; with E. coli, over 100 µM; in the assay on P. aeruginosa it was over 100 µM; in the assay with M. smegmatis, over 100 µM; with C. albicans, 100 µM (≈ 33.7 µg/mL).
For `COc1ccc2c(O)c3[n+](cc2c1OC)CCc1cc2c(cc1-3)OCO2` [Compound 2, 13-hydroxyberberine], the MIC with S. aureus was 12.5 to 25 µM; in the assay on B. subtilis [2] it was 50 µM; in the assay with E. coli, over 100 µM; in the assay on P. aeruginosa, over 100 µM; with M. smegmatis it was 25 µM; in the assay with C. albicans it was over 100 µM. Also, the IC50 in [3] was over 50 µM; in [4], 34.2 ± 3.8 µM; in [5], over 50 µM.
As to `COc1ccc2c(c1OC)C(CC(C)=O)N1CCc3cc4c(cc3C1=C2)OCO4` (centres unmarked) [Compound 3, 8-acetonyl dihydroberberine], the MIC was 100 µM (≈ 39.3 µg/mL) in the assay on S. aureus; over 100 µM in the assay on B. subtilis [2]; over 100 µM in the assay on E. coli; over 100 µM in the assay on P. aeruginosa; 100 µM (≈ 39.3 µg/mL) in the assay on M. smegmatis; 100 µM (≈ 39.3 µg/mL) in the assay on C. albicans.
As for `COc1ccc2c(CC(=O)O)c3[n+](cc2c1OC)CCc1cc2c(cc1-3)OCO2` [Compound 5, 13-(Acetic Acid) Berberine], the MIC was 100 µM with S. aureus; 100 µM in the assay on B. subtilis [2]; over 100 µM in the assay on E. coli; over 100 µM in the assay with P. aeruginosa; 50 µM in the assay on M. smegmatis; over 100 µM in the assay on C. albicans.
Take `COc1ccc2c(Cc3ccc(C#N)cc3)c3[n+](cc2c1OC)CCc1cc2c(cc1-3)OCO2` [Compound 7, 13-(4-Cyanobenzyl)Berberine]: the MIC with S. aureus was 100 µM; in the assay with B. subtilis [2] it was over 100 µM; with E. coli, over 100 µM; in the assay with P. aeruginosa, over 100 µM; with M. smegmatis, 100 µM; in the assay with C. albicans it was 100 µM.
`COc1ccc2c(Cc3ccc(S(N)(=O)=O)cc3)c3[n+](cc2c1OC)CCc1cc2c(cc1-3)OCO2` [Compound 10, 13-(4-Sulfamoylbenzyl)Berberine]: the MIC in the assay on S. aureus, with B. subtilis [2], with E. coli, in the assay on P. aeruginosa, in the assay on M. smegmatis and in the assay with C. albicans was over 100 µM in each case.
In the case of `COc1ccc2c(Cc3ccc(C=O)cc3)c3[n+](cc2c1OC)CCc1cc2c(cc1-3)OCO2` [Compound 12, 13-(4-Formylbenzyl)Berberine], the MIC is 100 µM with S. aureus; over 100 µM with B. subtilis [2]; over 100 µM with E. coli; over 100 µM with P. aeruginosa; 100 µM with M. smegmatis; over 100 µM in the assay with C. albicans.
As for `COc1ccc2c(Cc3ccc(C=NO)cc3)c3[n+](cc2c1OC)CCc1cc2c(cc1-3)OCO2` [Compound 21, N-({4-[(Berberin-13-yl)methyl]phenyl}methylidene)hydroxylamine], the MIC is 50 µM in the assay with S. aureus; 100 µM in the assay with B. subtilis [2]; over 100 µM in the assay with E. coli; over 100 µM in the assay with P. aeruginosa; 50 µM in the assay on M. smegmatis; over 100 µM in the assay on C. albicans.
For `COc1ccc2c(Cc3ccc(/C=C/C(=O)O)cc3)c3[n+](cc2c1OC)CCc1cc2c(cc1-3)OCO2` [Compound 22, (2E)-3-{4-[(Berberin-13-yl)methyl]phenyl}prop-2-enoic Acid], the MIC in the assay on S. aureus, with B. subtilis [2], in the assay with E. coli, in the assay on P. aeruginosa, with M. smegmatis and in the assay on C. albicans was over 100 µM in each case.
Consider `CO/N=C1\CN(c2nc3c(cc2F)c(=O)c(C(=O)O)cn3C2CC2)CC1CN` (centres unmarked) [Gemifloxacin, reference compound], for which the MIC stood at 0.06 µM (≈ 0.0234 µg/mL) with S. aureus; 0.02 µM (≈ 0.00779 µg/mL) in the assay with B. subtilis [2]; 0.06 µM (≈ 0.0234 µg/mL) in the assay with E. coli; 0.25 µM (≈ 0.0973 µg/mL) in the assay on P. aeruginosa; 2 µM (≈ 0.779 µg/mL) in the assay on M. smegmatis. Also, in the assay on B. subtilis [1], the “Observed Morphology: cells connected, B. subtilis” value was “Single cells”. In the assay on B. subtilis [1], the “Observed Morphology: DNA, B. subtilis” value was “Decondensed DNA”. The “Observed Morphology: cell elongation, V. alginolyticus” value in the assay on V. alginolyticus was 3–9 times compared to control. Besides, the “Observed Morphology: cells connected, V. alginolyticus” value with V. alginolyticus is recorded as 1–2 cells connected. Further, the “Observed Morphology: DNA, V. alginolyticus” value in the assay on V. alginolyticus is given as “Thick condensed DNA spanning the cell”.
Take `CO[C@H]1/C=C/O[C@@]2(C)Oc3c(C)c(O)c4c(O)c(c(/C=N/N5CCN(C)CC5)c(O)c4c3C2=O)NC(=O)/C(C)=C\C=C\[C@H](C)[C@H](O)[C@@H](C)[C@@H](O)[C@@H](C)[C@H](OC(C)=O)[C@@H]1C` [Rifampicin]: in the assay on B. subtilis [1], the “Observed Morphology: cell elongation/enlargement, B. subtilis” value was 2.5 times compared to control; the “Observed Morphology: cells connected, B. subtilis” value is listed as 2–3 cells connected; the “Observed Morphology: DNA, B. subtilis” value is reported as “DNA condensed in one thick filament crossing the cells some with dot like shape”. Further, the “Observed Morphology: cell membrane, B. subtilis” value in the assay on B. subtilis [1] (FM4-64FX) is recorded as “Cell membrane thickening”. In addition, in the assay on V. alginolyticus, the “Observed Morphology: cell elongation, V. alginolyticus” value is recorded as 2.5 times compared to control; the “Observed Morphology: cells connected, V. alginolyticus” value is reported as 1–2 cells connected; the “Observed Morphology: DNA, V. alginolyticus” value is recorded as “Condensed DNA spanning the cell”; the “Observed Morphology: cell membrane, V. alginolyticus” value is recorded as “Cell membrane pigmentation”.
In the case of `CN(C)[C@@H]1C(O)=C(C(N)=O)C(=O)[C@@]2(O)C(O)=C3C(=O)c4c(O)cccc4[C@@](C)(O)[C@H]3C[C@@H]12` [Tetracycline], in the assay on B. subtilis [1], the “Observed Morphology: cell elongation/enlargement, B. subtilis” value is reported as 1.5–3 times compared to control; the “Observed Morphology: cells connected, B. subtilis” value is given as 1–3 cells connected; the “Observed Morphology: DNA, B. subtilis” value is reported as “DNA condensed in one thin filament across the cells”. Also, in the assay with V. alginolyticus, the “Observed Morphology: cell elongation, V. alginolyticus” value is on record as 1.5–3 times compared to control; the “Observed Morphology: cells connected, V. alginolyticus” value is 1–3 cells connected; the “Observed Morphology: DNA, V. alginolyticus” value is reported as “DNA condensed in one thin filament spiring the cells”.
